According to patent US20070232563A1, “Method for Enhancing Biological Activity and/or Expanding Suitable Region for Biological Activity of Living Body Contacting with Aqueous Environment” (Kabushiki Kaisha Hayashibara Seibutsu Kagaku Kenky, priority 2004, published 2007):

Key:
[1] = tested on: crucian (Carassium cuvieri); assay: Removing fishy smell of freshwater fish: activity and sashimi panel; format: in vivo, Carassius cuvieri; settings: macroscopic observation; bred three days; each ingredient 1 (w/v)%
Description: Two per group of living crucian (Carassium cuvieri) with body size in the range of 15 to 20 cm were bred at ambient temperature in an aquarium filled with 10 L of an aqueous solution containing 1 w/v % mineral (solar salt) and 1 w/v % α,α-trehalose or α-maltosyl α,α-trehalose, on a dry solid basis, for three days. Waters containing either of mineral, α,α-trehalose or α-maltosyl α,α-trehalose as references and water without any mineral and saccharides as a control were prepared to breed the fishes similarly as above. The fishes were macroscopically observed their activity, and then prepated into sashimi. Twenty panels were allowed to taste them to judge their flavor and taste (fishy smell) in such a manner of comparing with references by the following four judgment criterions; “good”: no fishy smell; “slightly good”: fishy smell is weaker than the references; “normal”: fishy smell is equal to the references; and “bad”: fishy smell is stronger than the references.

alfalfa = assay: Cultivation of sprout food (alfalfa) in aqueous mineral solution: stem extension, flavor and taste panel; format: in vivo; settings: aerial part (stem) height vs water control; each ingredient 1 (w/v)%; three days, 18° C.
Text: Absorbent cotton was allowed to absorb aqueous solution containing on a dry solid basis 1 w/v % of mineral (sodium chloride) and 1 w/v % of α,α-trehalose or α-maltosyl α,α-trehalose and placed in a transparent container. One hundred per group commercialized alfalfa seeds were placed in the container. As references, waters containing either of mineral, α,α-trehalose or α-maltosyl α,α-trehalose were used. As a control, water was used. After covered with a transparent lid, the container was placed in a room under a borrowed light at 18° C. for three days to cultivate alfalfa. The grown alfalfa plants were measured to calculate average value of aerial part (stem) height. Relative extension rate was calculated in such a manner of comparing the average value of each sample with that of control. In addition, 20 panels were judged in view of flavor and taste in such a manner of comparing each sample with control cultivated in water.

[2] = tested on: colbicula (Corbicula leana); assay: Biological activity of corbicula (aqueduct extension score) in aqueous mineral solutions; format: in vivo
Text: Influence of various saccharides was judged by observing the degree of extending aqueduct of the shellfish; 3 points: its aqueduct is well extended; 2 points: its aqueduct is slightly extended; 1 point: its aqueduct is not extended but its shells are opened; 0 point: its shells are closed. The effect on biological activity was judged by the total point of 18 shellfishes.
Suitable region for biological activity was examined by using colbicula (Corbicula leana) as fishes and shellfishes living in fresh water in the case of enhancing their biological activity by using aqueous mineral solutions containing various saccharides. In detail, solar salt (85% by weight of sodium chloride and 15% by weight of magnesium) as minerals was dissolved in tap water kept in a container for two days to give final concentrations described in the following Table 4. Saccharide (any one of D-glucose, maltose, sucrose, maltitol, α,α-trehalose, α-maltosyl α,α-trehalose, maltotetraose and cyclic tetrasaccharide) was dissolved in the resulting salt solutions to give a final concentration of 1 w/v %, on a dry solid basis. The resulting each solution was placed in a plastic bat. Eighteen pre-selected active shellfishes in one group were placed in the bat. The bat was shaded with a black cloth and left at ambient temperature (18° C.) for 16 hours. As a control, an aqueous solar salt solution without saccharides was prepared. Biological activity of the shellfish was judged by measuring extend their aqueducts macroscopically in the same manner as in Experiment 1.
Effective concentration range of α,α-trehalose or α-maltosyl α,α-trehalose on enhancing biological activity and/or influencing on suitable region for biological activity of colbicula (Corbicula leana) was determined according to the method of Experiment 4 by examining biological activity of the shellfish in the aqueous mineral solution with a mineral concentration of 1.5 w/v %, where α,α-trehalose or α-maltosyl α,α-trehalose was effective in Experiment 4, containing α,α-trehalose or α-maltosyl α,α-trehalose at a concentration of 0.01, 0.1, 1, 2, 3 or 4 w/v %, on a dry solid basis. As a control, a solution containing 1.5 w/v % of mineral without such saccharides was prepared and treated in the same manner.

[3] = tested on: gold fish (Japanese gold fish, Carassius auratus) with columnaris disease; assay: Treatment for a disease of gold fish (columnaris disease); format: in vivo; settings: bred one week, each ingredient 1 (w/v)%; for Treatment effect: columnaris disease; for Activity of gold fish: macroscopic observation
Description: One per group of gold fish (Japanese gold fish, Carassius auratus) with columnaris disease was bred in an aquarium filled with 2 L of aqueous solution containing 1 w/v % mineral and 1 w/v % α,α-trehalose or α-maltosyl α,α-trehalose at ambient temperature with normal feed for one week. Waters containing either of mineral, α,α-trehalose or α-maltosyl α,α-trehalose as references and water as a control were prepared to breed similarly as above. The fishes were macroscopically observed their activity and treatment effect.

[4] = Experiment 5, mineral 1.5 w/v %, saccharide 0.01 w/v %
[5] = Experiment 5, mineral 1.5 w/v %, saccharide 0.1 w/v %
[6] = Experiment 5, mineral 1.5 w/v %, saccharide 1 w/v %
[7] = Experiment 5, mineral 1.5 w/v %, saccharide 2 w/v %
[8] = Experiment 5, mineral 1.5 w/v %, saccharide 3 w/v %
[9] = Experiment 5, mineral 1.5 w/v %, saccharide 4 w/v %
[10] = mineral concentration 0, saccharide 1 w/v %, total of 18 shellfishes, 16 h
[11] = mineral concentration 0.5, saccharide 1 w/v %, total of 18 shellfishes, 16 h
[12] = mineral concentration 1.0, saccharide 1 w/v %, total of 18 shellfishes, 16 h
[13] = mineral concentration 1.5, saccharide 1 w/v %, total of 18 shellfishes, 16 h
[14] = mineral concentration 2.0, saccharide 1 w/v %, total of 18 shellfishes, 16 h
[15] = mineral concentration 2.5, saccharide 1 w/v %, total of 18 shellfishes, 16 h
[16] = mineral concentration 3.0, saccharide 1 w/v %, total of 18 shellfishes, 16 h

Compound	Activity of Carassius cuvieri [1]	Relative extension (%) (alfalfa)	Judgment score of biological activity [2, 4]	Judgment score of biological activity [2, 5]	Judgment score of biological activity [2, 6]	Judgment score of biological activity [2, 7]	Judgment score of biological activity [2, 8]	Judgment score of biological activity [2, 9]	Judgment score of biological activity [2, 10]	Judgment score of biological activity [2, 11]	Judgment score of biological activity [2, 12]	Judgment score of biological activity [2, 13]	Judgment score of biological activity [2, 14]	Judgment score of biological activity [2, 15]	Judgment score of biological activity [2, 16]	Treatment effect [3]	Activity of gold fish [3]
OC[C@H]1O[C@H](O[C@H]2O[C@H](CO)[C@@H](O)[C@H](O)[C@H]2O)[C@H](O)[C@@H](O)[C@@H]1O [α,α-Trehalose, α,α-trehalose]	Good	101	21	39	52	48	39	25	54	53	52	49	42	20	6	Bad	Good
OC[C@H]1O[C@H](O[C@H]2O[C@H](CO)[C@@H](O[C@H]3O[C@H](CO)[C@@H](O[C@H]4O[C@H](CO)[C@@H](O)[C@H](O)[C@H]4O)[C@H](O)[C@H]3O)[C@H](O)[C@H]2O)[C@H](O)[C@@H](O)[C@@H]1O [α-Maltosyl α,α-trehalose, α-maltosyl α,α-trehalose]	Good	105	19	35	45	41	34	21	54	53	45	44	37	24	4	Bad	Good
